This is an account of results in patent US20230146507A1, “N-PHENYL-3-MERCAPTOPROPANAMIDE DERIVATIVES AS METALLO-BETA-LACTAMASE INHIBITORS FOR THE TREATMENT OF BACTERIAL INFECTIONS” (Helmholtz-Zentrum Für Infektionsforschung GmbH, priority 2020, published 2023).

In one data set the target is T1, NDM-1 (Klebsiella pneumoniae, UniProt C7C422).
T1 construct: made in house
Kind of data set: In vitro inhibition assay (kinetic fluorescence-based activity assay), NDM-1. In kind it is biochemical. To be noted: Means and SD of at least two independent experiments. How it is done:
(§1) Protein expression and purification. The expression of IMP-7, VIM-1, and NDM-1 was performed according to the protocol previously published by Klingler et al. (Klingler, F. M.; Wichelhaus, T. A.; Frank, D.; Cuesta-Bernal, J.; El-Delik, J.; Müller, H. F.; Sjuts, H.; Gottig, S.; Koenigs, A.; Pos, K. M.; et al. Approved Drugs Containing Thiols as Inhibitors of Metallo-β-Lactamases: Strategy to Combat Multidrug-Resistant Bacteria. J. Med. Chem. 2015, 58 (8), 3626-3630. https://doi.org/10.1021/jm501844d) with slight modifications.
(§2) In vitro inhibition assay. Activity assays for NDM-1, VIM-1, VIM-2 and IMP-7 were carried out, as described by Klingler et al. Final protein concentrations were 0.5 nM (NDM-1), 4.0 nM (VIM-1), and 0.1 nM (IMP-7) in a 50 mM HEPES buffer (pH 7.5, 0.01% Triton X-100) Substrate (Fluorocillin™ (Invitrogen, Darmstadt, Germany) was dissolved in assay buffer to a final concentration of 888 nM. Test compounds were dissolved and pre-diluted in DMSO (final concentration: 1%). In a black polystyrol 96-well plate (Corning) an amount of […] of the respective inhibitor solution at different concentrations was incubated with […] of respective protein containing buffer for 30 minutes at room temperature. […] of substrate solution was added. The readout of the emitted fluorescence was started immediately (45 s for 30 cycles) using a Tecan Infinite F200Pro (Tecan Group Ltd; excitation at 495 nm and emission at 525 nm). Blank controls were performed without enzyme. Positive controls were performed with enzyme but without inhibitor. The inhibitory activity of each test compound was measured in three independent experiments. For calculation of IC50 values, data obtained from measurements with eight different inhibitor concentrations were used. For the evaluation of the sigmoidal dose response equation (variable slope with four parameters) GraphPad Prism 5 (GraphPad Software, La Jolla, Calif., USA) was used.

The target in another data set is IMP-7 (Pseudomonas aeruginosa, UniProt Q93AU3). Put plainly: In vitro inhibition assay (kinetic fluorescence-based activity assay), IMP-7. In kind it is biochemical. To be noted: Means and SD of at least two independent experiments. How it is done: as §1, §2
IMP-7, sequence (Q93AU3 entry or part of it): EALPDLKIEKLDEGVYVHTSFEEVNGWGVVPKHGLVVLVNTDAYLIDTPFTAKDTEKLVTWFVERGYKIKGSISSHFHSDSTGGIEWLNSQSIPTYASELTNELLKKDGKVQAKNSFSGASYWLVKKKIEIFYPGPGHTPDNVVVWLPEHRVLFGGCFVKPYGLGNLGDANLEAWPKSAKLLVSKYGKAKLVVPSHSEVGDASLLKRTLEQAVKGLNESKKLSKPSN
A further data set concerns the target T2, VIM-1 (Pseudomonas aeruginosa, UniProt A0A0F7KYQ8).
T2 construct: made in house
Kind of data set: In vitro inhibition assay (kinetic fluorescence-based activity assay), VIM-1. In kind it is biochemical. The following applies: Means and SD of at least two independent experiments. The protocol:
as §1, §2

A further data set has as its target MMP-1 (Homo sapiens, UniProt P03956). Put plainly: Selectivity assay on MMP-1. In kind it is biochemical. To be noted: read-out: % Inh. @ 100 μM MMP-1. The protocol:
(§3) Cytotoxicity assays and Selectivity assays. Cytotoxicity assays on HepG2, HEK293 and A549 cells and selectivity assays on various MMPs were performed as described previously (Haupenthal, J.; Baehr, C.; Zeuzem, S.; Piiper, A. RNAse A-like Enzymes in Serum Inhibit the Anti-Neoplastic Activity of SiRNA Targeting Polo-like Kinase 1. Int. J. Cancer 2007, 121 (1), 206-210. https://doi.org/10.1002/ijc.22665).

Another data set deals with MMP-2 (Homo sapiens, UniProt P08253). Kind of data set: Selectivity assay on MMP-2. In kind it is biochemical. The following applies: read-out: % Inh. @ 100 μM MMP-2. The protocol:
as §3

For another data set, the target named is MMP-3 (Homo sapiens, UniProt P08254). Kind of data set: Selectivity assay on MMP-3. In kind it is biochemical. The following applies: read-out: % Inh. @ 100 μM MMP-3. How it is done: as §3
MMP-3, sequence (P08254 100-477): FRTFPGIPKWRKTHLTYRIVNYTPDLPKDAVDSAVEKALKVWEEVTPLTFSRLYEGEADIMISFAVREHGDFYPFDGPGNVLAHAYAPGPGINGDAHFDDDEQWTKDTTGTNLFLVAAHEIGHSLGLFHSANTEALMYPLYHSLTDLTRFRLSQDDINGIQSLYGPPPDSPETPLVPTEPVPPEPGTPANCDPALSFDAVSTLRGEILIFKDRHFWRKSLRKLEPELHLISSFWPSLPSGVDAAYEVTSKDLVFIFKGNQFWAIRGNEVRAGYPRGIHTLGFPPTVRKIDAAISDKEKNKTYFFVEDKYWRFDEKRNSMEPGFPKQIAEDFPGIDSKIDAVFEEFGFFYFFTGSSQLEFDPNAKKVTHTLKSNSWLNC
The target of another data set is MMP-7 (Homo sapiens, UniProt P09237). Put plainly: Selectivity assay on MMP-7. In kind it is biochemical. The following applies: read-out: % Inh. @ 100 μM MMP-7. How it is done:
as §3

The next data set has as its target MMP-8 (Homo sapiens, UniProt P22894). Kind of data set: Selectivity assay on MMP-8. In kind it is biochemical. The following applies: read-out: % Inh. @ 100 μM MMP-8. The protocol:
as §3

In the next data set the target is MMP-14 (Homo sapiens, UniProt P50281). Kind of data set: Selectivity assay on MMP-14. The following applies: read-out: % Inh. @ 100 μM MMP-14. In kind it is biochemical. The protocol: as §3
Data set [1] can be described thus: Cytotoxicity assay on HepG2 cells. In kind it is cell-based. To be noted: human. The protocol: as §3
Data set [2] is described as follows: Cytotoxicity assay on HEK293 cells. To be noted: human. In kind it is cell-based. The protocol:
as §3

Data set [3] in a line: Cytotoxicity assay on A549 cells. To be noted: human. In kind it is cell-based. How it is done:
as §3

For data set [4], the system named is different isolates from E. coli and P. aeruginosa. Put plainly: MIC assay, intrinsic antibacterial activity. In kind it is cell-based. To be noted: compound alone.
Data set [5] deals with imipenem-resistant P. aeruginosa producing VIM-2. Put plainly: Imipenem MIC with compound at single concentration. In kind it is cell-based. The following applies: compound at single concentration 1024 μg/mL.
Another data set relates to E. coli producing NDM-1. Put plainly: MIC of imipenem in the presence of HIPS1686. In kind it is cell-based. To be noted: for MIC: Escherichia coli.
The subject of another data set is E. coli NDM-1 (T2359). Kind of data set: Checkerboard assay with imipenem, E. coli NDM-1 (T2359). In kind it is cell-based. How it is done:
(§4) Fractional inhibitory concentration index (FICI). The checkerboard assay was performed to test for synergy in vitro. […] FICIs≤0.5 were defined as synergistic; FICIs from >0.5 to […] were defined as additive; FICIs from 1 to ≤4 were defined as indifferent and FICIs>4 were defined as antagonistic (Doern, C. D. When Does 2 plus 2 Equal 5? A Review of Antimicrobial Synergy Testing. J. Clin. Microbial. 2014, 52 (12), 4124-4128. https://doi.org/10.1128/JCM.01121-14).

Data set [6] concerns K. pneumoniae NDM-1 (T2301). Put plainly: MIC assay, clinical isolate. In kind it is cell-based. The following applies: +HIPS1686 256 mg/L.
In another data set the test system is E. cloacae NDM-1 (T2311). Kind of data set: MIC assay, clinical isolate. In kind it is cell-based. The following applies: +HIPS1686 256 mg/L.
The test system of data set [7] is S. marcescens NDM-1 (T2352). Put plainly: MIC assay, clinical isolate. In kind it is cell-based.
Another data set deals with E. coli NDM-5 (T2351). Put plainly: MIC assay, clinical isolate. In kind it is cell-based. To be noted: +HIPS1686 256 mg/L.
The test system of a further data set is E. cloacae VIM-1 (T2353). Kind of data set: MIC assay, clinical isolate. In kind it is cell-based. To be noted: +HIPS1686 256 mg/L.
For data set [8], the system named is P. aeruginosa IMP-1 (T2325). Kind of data set: MIC assay, clinical isolate. In kind it is cell-based.
The test system of a further data set is E. cloacae GIM-1 (T2218). Put plainly: MIC assay, clinical isolate. In kind it is cell-based.
The test system of a further data set is E. coli VIM-1 (T2544). Put plainly: Checkerboard assay with imipenem, E. coli VIM-1 (T2544). In kind it is cell-based. The protocol: as §4
A further data set relates to E. coli IMP-1 (T2360). Put plainly: Checkerboard assay with imipenem, E. coli IMP-1 (T2360). In kind it is cell-based. The following applies: Escherichia coli, read-out: Imipenem MIC. The protocol: as §4
The subject of the next data set is E. coli NDM-7 (T2239). Kind of data set: MIC assay, clinical isolate. In kind it is cell-based. To be noted: Escherichia coli, read-out: MIC (mg/L) Imipenem.

≈ marks a conversion by molar mass, not a printed value.

T1 sequence (C7C422 29-270, looked up, species assumed): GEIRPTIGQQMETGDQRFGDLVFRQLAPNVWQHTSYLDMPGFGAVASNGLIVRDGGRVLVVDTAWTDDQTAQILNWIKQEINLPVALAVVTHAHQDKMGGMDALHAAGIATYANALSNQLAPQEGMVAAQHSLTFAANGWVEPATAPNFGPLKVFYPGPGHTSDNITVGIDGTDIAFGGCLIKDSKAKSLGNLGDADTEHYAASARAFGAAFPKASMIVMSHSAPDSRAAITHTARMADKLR
MMP-7, sequence (P09237 95-267): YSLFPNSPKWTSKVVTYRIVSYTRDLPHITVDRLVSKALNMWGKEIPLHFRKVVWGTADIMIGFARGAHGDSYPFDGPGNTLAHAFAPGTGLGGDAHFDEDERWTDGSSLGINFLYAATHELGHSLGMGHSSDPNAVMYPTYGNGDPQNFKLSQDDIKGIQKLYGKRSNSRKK
MMP-8, sequence (P22894 101-467): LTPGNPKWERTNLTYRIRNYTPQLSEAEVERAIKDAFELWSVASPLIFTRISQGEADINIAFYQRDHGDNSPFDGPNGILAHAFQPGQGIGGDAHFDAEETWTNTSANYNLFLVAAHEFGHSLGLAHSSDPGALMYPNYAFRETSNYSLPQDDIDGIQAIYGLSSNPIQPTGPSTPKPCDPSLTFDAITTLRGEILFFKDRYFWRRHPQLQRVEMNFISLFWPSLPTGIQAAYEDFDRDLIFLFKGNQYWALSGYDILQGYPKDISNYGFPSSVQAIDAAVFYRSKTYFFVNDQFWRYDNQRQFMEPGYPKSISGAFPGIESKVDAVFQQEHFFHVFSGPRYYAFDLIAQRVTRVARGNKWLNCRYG
MMP-2, sequence (P08253 110-660): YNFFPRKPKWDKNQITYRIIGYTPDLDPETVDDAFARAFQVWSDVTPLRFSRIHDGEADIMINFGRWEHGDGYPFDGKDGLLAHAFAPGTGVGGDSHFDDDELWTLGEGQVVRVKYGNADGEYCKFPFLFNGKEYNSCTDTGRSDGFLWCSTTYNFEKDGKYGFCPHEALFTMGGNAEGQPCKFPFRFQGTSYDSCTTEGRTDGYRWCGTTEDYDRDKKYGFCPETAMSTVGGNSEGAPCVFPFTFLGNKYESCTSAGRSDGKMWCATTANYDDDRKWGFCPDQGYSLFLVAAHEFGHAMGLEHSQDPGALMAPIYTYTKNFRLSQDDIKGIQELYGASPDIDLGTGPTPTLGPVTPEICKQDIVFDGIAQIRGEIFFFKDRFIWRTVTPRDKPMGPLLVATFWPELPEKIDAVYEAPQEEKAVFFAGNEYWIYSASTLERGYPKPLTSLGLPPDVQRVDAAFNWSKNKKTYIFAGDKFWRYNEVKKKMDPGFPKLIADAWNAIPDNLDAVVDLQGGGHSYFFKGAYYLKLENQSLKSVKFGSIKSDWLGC
MMP-1, sequence (P03956 100-469): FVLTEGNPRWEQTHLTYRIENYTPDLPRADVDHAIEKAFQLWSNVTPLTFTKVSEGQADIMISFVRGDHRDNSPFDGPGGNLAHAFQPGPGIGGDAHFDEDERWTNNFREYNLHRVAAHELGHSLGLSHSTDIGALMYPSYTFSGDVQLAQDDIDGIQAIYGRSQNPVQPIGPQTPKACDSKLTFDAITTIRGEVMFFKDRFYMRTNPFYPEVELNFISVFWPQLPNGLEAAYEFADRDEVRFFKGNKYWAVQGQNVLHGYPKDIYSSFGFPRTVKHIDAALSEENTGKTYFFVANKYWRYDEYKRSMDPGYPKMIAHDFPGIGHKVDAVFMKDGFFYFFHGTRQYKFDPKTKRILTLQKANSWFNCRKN

Usually IC50 stands for the concentration needed to halve the response being measured. For the compound `O=C(CCS)Nc1ccc(Cl)c(Cl)c1` [HIPS1447, N-(3,4-Dichlorophenyl)-3-mercaptopropanamide], the IC50 on NDM-1 is 1.3 µM; at IMP-7, 5 ± 0.6 µM; against VIM-1 it was 0.1 µM; in data set [1], more than 100 µM; in data set [2] it was more than 100 µM; in data set [3], more than 100 µM. Moreover, the inhibition at 100 µM on MMP-1 is less than 10%; at MMP-2 it was 15.8 ± 13.5%; at MMP-3, less than 10%; at MMP-7, less than 10%; at MMP-8, 38.2 ± 24.8%; on MMP-14, 17.9 ± 7.8%. Besides, the “intrinsic antibacterial activity (MIC)” value in data set [4] was “no intrinsic antibacterial activity”. In addition, the “fold decrease of imipenem MIC value” in [5] turned out to be 64 fold.

In the case of `O=C(CCS)Nc1ccccc1C(=O)O` [HIPS1686], the figures for the IC50 on NDM-1, on IMP-7 and against VIM-1 were 3.4 ± 0.1 µM, 4.1 ± 0.3 µM and 2.2 ± 0.2 µM, respectively. For the same compound, the “intrinsic antibacterial activity (MIC)” value in data set [4] is recorded as “no intrinsic antibacterial activity”. Further, in the data set with E. coli producing NDM-1, the MIC is more than 1020 µg/mL. Moreover, the “MIC of imipenem in the presence of HIPS1686” value with E. coli producing NDM-1 (HIPS1686 constant 64 μg/ml) was determined as 4 µg/mL; with E. coli producing NDM-1 (HIPS1686 constant 256 μg/ml) it was 1 µg/mL; in the data set on E. coli producing NDM-1 (HIPS1686 constant 1024 μg/ml), 1 µg/mL. Besides, the “Imipenem MIC” value in the data set with E. coli NDM-1 (T2359) (Table 4, +4 mg/L HIPS1686, median of three experiments) came out at 64 µg/mL; with E. coli NDM-1 (T2359) (Table 4, +8 mg/L HIPS1686, median of three experiments), 64 µg/mL; with E. coli NDM-1 (T2359) (Table 4, +16 mg/L HIPS1686, median of three experiments), 64 µg/mL; with E. coli NDM-1 (T2359) (Table 4, +32 mg/L HIPS1686, median of three experiments), 16 µg/mL; in the data set on E. coli NDM-1 (T2359) (Table 4, +64 mg/L HIPS1686, median of three experiments), 8 µg/mL; with E. coli NDM-1 (T2359) (Table 4, +128 mg/L HIPS1686, median of three experiments), 2 µg/mL. Besides, the “Imipenem MIC” value with E. coli NDM-1 (T2359) (Table 4, +256 mg/L HIPS1686, median of three experiments) was 2 µg/mL. The “MIC (mg/L) Imipenem (+HIPS1686 256 mg/L)” value was 1 mg/L (≈ 4.44 µM) in data set [6]; 1 mg/L (≈ 4.44 µM) against E. cloacae NDM-1 (T2311); 4 mg/L (≈ 17.8 µM) in [7] (+HIPS1686 256 mg/L, S. marcescens NDM-1 (T2352)); 2 mg/L (≈ 8.88 µM) with E. coli NDM-5 (T2351); 4 mg/L (≈ 17.8 µM) in the data set on E. cloacae VIM-1 (T2353); 32 mg/L (≈ 142 µM) in data set [8] (+HIPS1686 256 mg/L, P. aeruginosa IMP-1 (T2325)). Moreover, the “MIC (mg/L) Imipenem (+HIPS1686 256 mg/L)” value in the data set with E. cloacae GIM-1 (T2218) (+HIPS1686 256 mg/L, E. cloacae GIM-1 (T2218)) is reported as 0.5 mg/L (≈ 2.22 µM).

In the case of `C[C@@H](O)[C@H]1C(=O)N2C(C(=O)O)=C(SCCN=CN)C[C@H]12` [Imipenem, reference compound], the MIC with E. coli producing NDM-1 stood at 128 µg/mL; in the data set on E. coli NDM-1 (T2359) (Escherichia coli, read-out: Imipenem MIC) it was 128 µg/mL; with E. coli VIM-1 (T2544) (Escherichia coli, read-out: Imipenem MIC, without compound) it was 32 µg/mL; in the data set on E. coli IMP-1 (T2360), 2 µg/mL; in [7] (Serratia marcescens, read-out: MIC (mg/L) Imipenem), 256 mg/L (≈ 855 µM); in [8] (Pseudomonas aeruginosa, read-out: MIC (mg/L) Imipenem) it was 64 mg/L (≈ 214 µM). In addition, the MIC was 2 mg/L (≈ 6.68 µM) with E. cloacae GIM-1 (T2218) (Enterobacter cloacae, read-out: MIC (mg/L) Imipenem) and 32 mg/L (≈ 107 µM) in the data set with E. coli NDM-7 (T2239). The “Imipenem MIC” value is 128 µg/mL in the data set with E. coli NDM-1 (T2359) (Table 6, without compound) and 64 µg/mL in the data set on E. coli VIM-1 (T2544) (without compound).
